Measured values from US10660910B2, “Use of sedoheptulose for prevention or treatment of inflammation” (C7 SUGAR GMBH, priority 2013, dated 2020).

How the values were obtained:
[1] = system: primary bone marrow derived macrophages; experiment: Bone marrow derived macrophages, basal cytokine mRNA (RT-PCR) and secretion (ELISA); format: cell-based, mouse
Procedure: FIG. 3: (A-E) Primary human adipocytes were obtained by differentiation of the stromal vascular cell fraction in the presence of glucose and fructose (GF, 1.5 g/L of each sugar; total carbohydrates 3 g/L) or sedoheptulose supplemented media, which was termed GFS (1 g/L of each sugar; total carbohydrates 3 g/L), for eight days. Subsequently mRNA levels of (A) CARKL, (B) adiponectin and (C) uncoupling protein 1 (UCP-1) was assessed by RT-PCR and compared between the groups. (D) Cellular oxygen consumption rates (OCR) and (E) extracellular acidification rates (ECAR) of adipocytes were recorded in the presence of indicated carbohydrate-mix (mean+/−S.D., n=9-11). (F) Tumor necrosis factor alpha (TNFa) and (G) interleukin 6 (IL-6) mRNA expression levels of mature murine adipocytes cultivated for three days in cell culture media containing either GF or GFS carbohydrate mix, or (H) IL-6 expression in primary murine hepatocytes, as well as (I) TNFa and (J) IL-6 mRNA levels in primary bone marrow derived macrophages, both cell types were pre-cultured for two days in GF or GFS media, were compared between respective groups. Secretion of (K) TNFa and (L) IL-6 cytokines over the period of two days was measured by ELISA in the supernatant of bone marrow derived macrophages. LPS-induced (100 ng/ml) secretion of (M) TNFa 2 hrs after activation and (N) IL-6 6 hrs after activation in the respective media by macrophages was also measured by ELISA. Data represents mean+/−S.D., n=3)
Mouse bones were isolated from male wild-type and CARKL overexpressing mice and bone marrow wash flushed, washed and cleared from redblood cells by lysis, and subsequently differentiated in DMEM containing 25 mM glucose and 20 ng/ml M-CSF. After 4 days, cells for osteoclast differentiation were harvested and seeded in corning osteo assay plates with differentiation media (see below), and for primary bone marrow derived macrophages (BMDM) the medium was renewed and further supplemented with M-SCF for two days. Differentiated BMDM were then seeded in respective DMEM-media containing 10% FBS and indicated carbohydrate mixes at 3 g/L (glucose and fructose (GF), or glucose, fructose and sedoheptulose (GFS)) at least two days before experiments were performed.
Briefly, total RNA was extracted and reverse-transcribed using commercial kits (QIAGEN, Applied Biosystems). Quantitative real-time PCRs were performed on an AbiPRISM 7900HT real-time cycler using iTaq SYBR Green Supermix with ROX (BioRad) to measure CARKL, adiponectin, UCP-1, TNFa, IL-6, MCP-1, and beta-actin expression as previously described (Haschemi et al., Cell Metab. 15 (2012), 813-826). Expression of target gene was normalized to beta-actin expression. Relative expression of target gene was calculated by the delta-delta CT method.

[2] = molecular target: T1, recombinant sedoheptulose kinase (CARKL) (Homo sapiens, UniProt Q9UHJ6); experiment: Sedoheptulose kinase assay (ADP Quest, ADP formation); format: biochemical; details: constant amount of recombinant CARKL, constant ATP (150 μM), increased doses of sedoheptulose, FIG. 4A
T1 construct: made in house; host or cells: E. coli
T1 sequence (Q9UHJ6 1-478): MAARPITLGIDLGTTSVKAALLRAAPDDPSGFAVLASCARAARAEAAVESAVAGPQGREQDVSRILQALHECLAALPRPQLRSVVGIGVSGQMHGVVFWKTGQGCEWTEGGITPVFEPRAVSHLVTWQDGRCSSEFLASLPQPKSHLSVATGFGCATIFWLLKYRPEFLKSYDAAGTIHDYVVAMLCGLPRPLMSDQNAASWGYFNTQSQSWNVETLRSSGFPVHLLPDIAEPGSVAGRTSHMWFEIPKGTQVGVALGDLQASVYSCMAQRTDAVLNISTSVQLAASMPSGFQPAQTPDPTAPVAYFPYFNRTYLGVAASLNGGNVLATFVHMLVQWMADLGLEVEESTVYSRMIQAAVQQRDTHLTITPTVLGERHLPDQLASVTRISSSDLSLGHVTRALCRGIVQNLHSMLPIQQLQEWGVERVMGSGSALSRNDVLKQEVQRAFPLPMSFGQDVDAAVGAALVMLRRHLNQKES
Procedure: FIG. 4: In an in vitro kinase assay, which employs ADP formation as activity readout, the sedoheptulose turnover rate at constant ATP (150 μM) concentration was enhanced either by (A) increasing sedoheptulose concentration or (B) by increasing the amount of the rate-limiting enzyme sedoheptulose kinase (CARKL). (C-E) Hepatocytes from wilt-type (WT) and sedoheptulose kinase CARKL overexpressing mice were pre-cultured for two days in GFS containing media before basal (C) ECAR and (D) OCR was recorded of these cells. (E) Hepatocytes from both genetic lineages (CARKL and WT controls) were cultivated in GF or GFS containing media and then pre-starved (no-carbohydrates) for 1 h to measure glucose-induced ECAR after the addition of glucose to reach a final concentration of 1 g/L in the culture media mean+/−S.D., n=7-11). As metabolic in vivo indicators (F) the respiratory quotient (RQ) and (G) energy expenditure (EE, kcal/day/kg^0.75) per activity by indirect calorimetry were determined and compared CARKL to wild-type (WT) littermates during day (8 am to 4 pm) and night (8 pm to 4 am). Data represent mean values, n=3, +/−SD. […] Blood glucose was measured before the injection (control) and 15, 30, 45 and 60 minutes after injection and graphed as relative value in % of control. […]

- sedoheptulose turnover rates as measured by ADP formation [2]: enhanced
SMILES: O=C(CO)[C@@H](O)[C@H](O)[C@H](O)[C@H](O)CO [sedoheptulose, Sedoheptulose]
- basal TNFa mRNA expression ([1]; pre-cultured two days in GFS vs GF media, FIG. 3I): blocked
- basal IL-6 mRNA expression ([1]; pre-cultured two days in GFS vs GF media, FIG. 3J): blocked
- basal TNFa cytokine secretion ([1]; supernatant over two days, ELISA, GFS vs GF media, FIG. 3K): blocked
- basal IL-6 cytokine secretion ([1]; supernatant over two days, ELISA, GFS vs GF media, FIG. 3L): blocked
